The results in this text go back to patent publication US5663162A, “Cephem derivatives” (priority 1993, dated 1997).

Values after ≈ are worked out from the molar mass of the structure shown. Like-named read-outs stand apart in the source and are kept apart here.

Common to all, as to assay: Antibacterial activity test, MIC by two-fold dilution method
Experiment [1] deals with S. marcescens No. 1. Format: cell-based. The settings on record: Serratia marcescens; S. marcescens No. 1; 10^6 CFU/ml, 35° C., 18 to 20 hours; read-out: Minimum Inhibition Concentration. As for the experimental part: (§1) The measurement was carried out in the following manner: 10^6 CFU/ml of a bacterium to be tested was inoculated on a Medium N for disc susceptibility test (manufactured by Nissui Pharmaceutical Co., Ltd.), and cultivated at 35° C. for 18 to 20 hours.

For experiment [2], the system named is M. morganii 1510/S-1. Format: cell-based. The conditions noted are these: Morganella morganii, 1510/S1; M. morganii 1510/S-1; 10^6 CFU/ml, 35° C., 18 to 20 hours; read-out: Minimum Inhibition Concentration. The procedure:
as §1

Experiment [3] has as its system C. freundii GN346/16. Format: cell-based. The conditions noted are these: Citrobacter freundii. The procedure:
as §1

Experiment [4] relates to P. vulgaris GN76. Format: cell-based. The settings on record: Proteus vulgaris. The procedure:
as §1

The test system of experiment [5] is E. coli NIHJ JC-2. Format: cell-based. The conditions noted are these: Escherichia coli, NIHJJC2; E. coli NIHJ JC-2; 10^6 CFU/ml, 35° C., 18 to 20 hours; read-out: Minimum Inhibition Concentration. As for the experimental part: as §1
In experiment [6] the test system is P. aeruginosa GN10362. Format: cell-based. The conditions noted are these: Pseudomonas aeruginosa. The procedure: as §1
Experiment [7] deals with S. epidermidis ATCC14990. Format: cell-based. The conditions noted are these: Staphylococcus epidermidis. As for the experimental part: as §1
For experiment [8], the system named is E. cloacae G-0008. Format: cell-based. The conditions noted are these: Enterobacter cloacae, G0008; E. cloacae G-0008; 10^6 CFU/ml, 35° C., 18 to 20 hours; read-out: Minimum Inhibition Concentration. The procedure: as §1
Experiment [9] concerns P. aeruginosa E-2. Format: cell-based. The conditions noted are these: Pseudomonas aeruginosa. As for the experimental part:
as §1

Experiment [10] has as its system S. Aureus 209P JC-1. Format: cell-based. The conditions noted are these: Staphylococcus aureus, read-out: Minimum Inhibition Concentration. As for the experimental part: as §1
Experiment [11] deals with K. pneumoniae PC1602. Format: cell-based. The settings on record: Klebsiella pneumoniae; K. pneumoniae PC1602; 10^6 CFU/ml, 35° C., 18 to 20 hours; read-out: Minimum Inhibition Concentration. As for the experimental part: as §1
Experiment [12] deals with S. Aureus 126. Format: cell-based, Staphylococcus aureus (methicillin-resistant, MRSA). The settings on record: Staphylococcus aureus; S. Aureus 126 (MRSA); 10^6 CFU/ml, 35° C., 18 to 20 hours; read-out: Minimum Inhibition Concentration. The procedure:
as §1

Experiment [13] has as its system S. Aureus 133. Format: cell-based, Staphylococcus aureus (methicillin-resistant, MRSA). The settings on record: Staphylococcus aureus, read-out: Minimum Inhibition Concentration. As for the experimental part: as §1
[14] abbreviates: C. freundii GN346/16, 10^6 CFU/ml, 35° C., 18 to 20 hours, read-out: Minimum Inhibition Concentration.
Setting [15] is: P. vulgaris GN76, 10^6 CFU/ml, 35° C., 18 to 20 hours, read-out: Minimum Inhibition Concentration.
Where [16] appears, read: P. aeruginosa GN10362, 10^6 CFU/ml, 35° C., 18 to 20 hours, read-out: Minimum Inhibition Concentration.
The mark [17] stands for this setting: ATCC14990, read-out: Minimum Inhibition Concentration.
[18] abbreviates: E2, P. aeruginosa E-2, 10^6 CFU/ml, 35° C., 18 to 20 hours, read-out: Minimum Inhibition Concentration.
Setting [19] is: GN10362, read-out: Minimum Inhibition Concentration.
Where [20] appears, read: S. Aureus 133 (MRSA), 10^6 CFU/ml, 35° C., 18 to 20 hours.

With `NC(=O)c1csc2c[n+](CC3=C(C(=O)[O-])N4C(=O)[C@@H](NC(=O)/C(=N\OCCF)c5nsc(N)n5)[C@H]4SC3)cn12` [Example 48, (6R,7R)-7-[(Z)-2-(5-Amino-2,4-thiadiazol-3-yl)-2-(2-fluoroethoxyimino)acetamide]-3-(3-carbamoylimidazo[5,1-b]thiazolium-6-yl)methyl-3-cephem-4-carboxylate], the MIC in [1] was not above 0.025 µg/mL; in experiment [2] it was not above 0.025 µg/mL; in experiment [3] (setting [14]), 0.1 µg/mL (≈ 0.168 µM); in experiment [4] (setting [15]), 0.2 µg/mL (≈ 0.336 µM); in [5], not above 0.025 µg/mL; in experiment [6] (setting [16]), 0.78 µg/mL (≈ 1.31 µM). The MIC in experiment [7] (setting [17]) was 0.39 µg/mL (≈ 0.655 µM); in [8] it was not above 0.025 µg/mL; in [9] (setting [18]), 0.78 µg/mL (≈ 1.31 µM); in experiment [10] (209P) it was 0.39 µg/mL (≈ 0.655 µM); in experiment [11], not above 0.025 µg/mL; in [12], 12.5 µg/mL (≈ 21 µM). In experiment [13] (MRSA), the MIC amounted to 6.25 µg/mL (≈ 10.5 µM).
With `CO/N=C(\C(=O)N[C@@H]1C(=O)N2C(C(=O)[O-])=C(C[n+]3cc4sccn4c3)CS[C@H]12)c1nsc(N)n1` [Example 30, (6R,7R)-7-[(Z)-2-(5-Amino-1,2,4-thiadiazol-3-yl)-2-methoxyiminoacetamide]-3-(imidazo [5, l-b]thiazolium-6-yl)methyl-3-cephem-4-carboxylate], the MIC worked out at 0.05 µg/mL (≈ 0.096 µM) in [1]; 0.1 µg/mL (≈ 0.192 µM) in [2]; 0.1 µg/mL (≈ 0.192 µM) in [3] (setting [14]); 0.39 µg/mL (≈ 0.749 µM) in [4] (GN76, read-out: Minimum Inhibition Concentration); 0.05 µg/mL (≈ 0.096 µM) in experiment [5]; 1.56 µg/mL (≈ 3 µM) in experiment [6] (setting [19]). The MIC in experiment [7] (setting [17]) is 0.39 µg/mL (≈ 0.749 µM); in experiment [8] it was 0.05 µg/mL (≈ 0.096 µM); in experiment [9] (setting [18]) it was 3.13 µg/mL (≈ 6.01 µM); in experiment [10] (209P) it was 0.39 µg/mL (≈ 0.749 µM); in experiment [11] it was 0.05 µg/mL (≈ 0.096 µM); in experiment [12] it was 25 µg/mL (≈ 48 µM). For the same molecule, the MIC in experiment [13] (setting [20]) is 12.5 µg/mL (≈ 24 µM).
With `Nc1nc(/C(=N/OCCF)C(=O)N[C@@H]2C(=O)N3C(C(=O)[O-])=C(C[n+]4cc5sccn5c4)CS[C@H]23)ns1` [Example 133, (6R,7R)-7-[(Z)-2-(5-Amino-1,2,4-thiadiazol-3-yl)-2-(2-fluoroethoxyimino)acetamide]3-cephem-4-carboxylate], the MIC in experiment [1] was not above 0.025 µg/mL; in experiment [2] it was not above 0.025 µg/mL; in [3] (setting [14]), 0.1 µg/mL (≈ 0.181 µM); in experiment [4] (setting [15]), 0.2 µg/mL (≈ 0.362 µM); in experiment [5] it was not above 0.025 µg/mL; in [6] (setting [16]), 0.78 µg/mL (≈ 1.41 µM). Besides, the MIC was 0.39 µg/mL (≈ 0.706 µM) in experiment [7] (setting [17]); not above 0.025 µg/mL in experiment [8]; 0.78 µg/mL (≈ 1.41 µM) in experiment [9] (setting [18]); 0.39 µg/mL (≈ 0.706 µM) in experiment [10] (209P); not above 0.025 µg/mL in experiment [11]; 12.5 µg/mL (≈ 22.6 µM) in experiment [12]. Moreover, the MIC in experiment [13] (MRSA) was found to be 6.25 µg/mL (≈ 11.3 µM).
`CO/N=C(\C(=O)N[C@@H]1C(=O)N2C(C(=O)[O-])=C(C[n+]3cc4scc(C(N)=O)n4c3)CS[C@H]12)c1nsc(N)n1` [Example 44, (6R,7R)-7-[(Z)-2-(5-Amino-1,2,4-thiadiazol-3-yl)-2-methoxyiminoacetamide]-3-(3-carbamoylimidazo[5,1-b]thiazolium-6-yl)methyl-3-cephem-4-carboxylate]: the MIC in [1] is 0.05 µg/mL (≈ 0.0887 µM); in experiment [2], 0.05 µg/mL (≈ 0.0887 µM); in experiment [3] (setting [14]) it was 0.1 µg/mL (≈ 0.177 µM); in experiment [4] (setting [15]), 0.2 µg/mL (≈ 0.355 µM); in experiment [5], not above 0.025 µg/mL; in experiment [6] (setting [19]) it was 1.56 µg/mL (≈ 2.77 µM). In addition, the MIC is 0.78 µg/mL (≈ 1.38 µM) in [7] (S. epidermidis ATCC14990, 10^6 CFU/ml, 35° C., 18 to 20 hours, read-out: Minimum Inhibition Concentration); 0.05 µg/mL (≈ 0.0887 µM) in experiment [8]; 1.56 µg/mL (≈ 2.77 µM) in experiment [9] (E2, read-out: Minimum Inhibition Concentration); 0.78 µg/mL (≈ 1.38 µM) in [10] (S. Aureus 209P JC-1, 10^6 CFU/ml, 35° C., 18 to 20 hours); not above 0.025 µg/mL in experiment [11]; 25 µg/mL (≈ 44.4 µM) in [12]. Also, in [13] (setting [20]), the MIC turned out to be 12.5 µg/mL (≈ 22.2 µM).
Turning to `C[C@H](O/N=C(\C(=O)N[C@@H]1C(=O)N2C(C(=O)[O-])=C(C[n+]3cc4sccn4c3)CS[C@H]12)c1csc(N)n1)C(=O)O` [Example 2, (6R,7R)-7-[(Z)-2-(2-Aminothiazol-4-yl)-2-((S)-l-carboxyethoxy-imino)acetamide]-3-(imidazo[5,1-b]thiazolium-6-yl)methyl-3-cephem-4-carboxylate], the MIC in experiment [1] was not above 0.025 µg/mL; in experiment [2], not above 0.025 µg/mL; in [3] (GN346, read-out: Minimum Inhibition Concentration) it was 0.39 µg/mL (≈ 0.675 µM); in experiment [4] (setting [15]), not above 0.025 µg/mL; in experiment [5], 0.05 µg/mL (≈ 0.0866 µM); in experiment [6] (setting [16]), 0.78 µg/mL (≈ 1.35 µM). The MIC in [7] (setting [17]) is 6.25 µg/mL (≈ 10.8 µM); in experiment [8], 0.05 µg/mL (≈ 0.0866 µM); in experiment [9] (setting [18]), 0.78 µg/mL (≈ 1.35 µM); in experiment [10] (209P) it was 6.25 µg/mL (≈ 10.8 µM); in experiment [11], not above 0.025 µg/mL; in [12], more than 100 µg/mL. The MIC in experiment [13] (setting [20]) stood at 100 µg/mL (≈ 173 µM).
